Earlier results, collected in US20050201989A1, “Compositions and methods for ex vivo preservation of blood vessels for vascular grafts using inhibitors of tumor necrosis factor-alpha” (St. Camillus Medical, Inc., priority 2004, published 2005).

System: endothelial cells
Conditions: general knowledge statement, no test described

CCCC(=O)Nc1ncnc2c1ncn2[C@@H]1O[C@@H]2COP(=O)(O)O[C@H]2[C@H]1OC(=O)CCC [db cAMP, dibutyryl adenosine 3′,5′-cyclic monophosphate]
db cAMP concentration that becomes toxic to endothelial cells: higher than 4 mM
